Laboratory results published in patent US20190011433A1, “CELL CO-CULTURE SYSTEMS AND USES THEREOF” (Dana-Farber Cancer Institute, Inc., priority 2007, published 2019).
“Also recorded” adds a separate entry of the source.

Columns and labels:
[1] = tested on: Multiple myeloma (MM) cells; conditions: cited from earlier work
MM = conditions: cited from earlier work
[2] = tested on: MDA-MB-231met-luc-neo cells; test: CS-BLI drug sensitivity of MDA-MB-231met-luc-neo cells alone or with HS-5 BMSCs; type: cell-based; conditions: MDA-MB-231met-luc-neo alone or with HS-5 BMSCs (10,000/well), 48 hrs
Experimental: (§1) MDA-MB-231met-luc-neo (FIG. 18A, FIG. 18B), A375-luc-neo (FIG. 18C, FIG. 18D) and FRO-luc-neo (FIG. 18E, FIG. 18F) cells were plated either alone or mixed with HS-5 BMSCs (10,000 /well) and treated the following day. The cultures of tumor cells and their co-cultures with BMSCs were incubated for an additional 48 hrs.

A375-luc-neo cells = test: CS-BLI drug sensitivity of A375-luc-neo cells alone or with HS-5 BMSCs; type: cell-based; conditions: A375-luc-neo alone or with HS-5 BMSCs (10,000/well), 48 hrs
Experimental: as §1

K562-luc leukemia cells = test: CS-BLI drug sensitivity of K562-luc leukemia cells in presence vs absence of HS-5 BMSCs; type: cell-based; conditions: presence vs absence of HS-5 BMSCs (10,000 per well)
Description: (§2) Applicants expanded the application of in vitro compartment-specific bioluminescence imaging assays beyond the MM cells to other tumor models, namely a few leukemic cell lines. Applicants specifically tested luciferase-expressing K562-luc-neo and KU812F-luc-neo leukemic cells against standard anti-leukemia agents, including AraC and Doxo, in the presence vs. absence of HS-5 stromal cells (FIG. 7A and FIG. 7B).

FRO-luc-neo cells = test: CS-BLI drug sensitivity of FRO-luc-neo cells alone or with HS-5 BMSCs; type: cell-based; conditions: FRO-luc-neo alone or with HS-5 BMSCs (10,000/well), 48 hrs
Experimental: as §1

[3] = tested on: KU812F-luc leukemia cells; test: CS-BLI drug sensitivity of KU812F-luc leukemia cells in presence vs absence of HS-5 BMSCs; type: cell-based; conditions: presence vs absence of HS-5 BMSCs (10,000 per well)
Description: In another set of experiments, Applicants tested and observed similar protective/sensitization effect of stroma cell on KU812F-luc cells on various drugs (data not shown).
as §2

[4] = tested on: MM-1S-GFP-luc myeloma cells; test: CS-BLI drug sensitivity of MM-1S-GFP-luc cells in presence vs absence of stromal cells; type: cell-based, human; conditions: presence vs absence of HS-5 BMSCs (10,000 per well)
Experimental: Luciferin (7.5 mg/mL; Xenogen Corp, Alameda, Calif.) was added at the volume stated in each experiment. Cell viability and the precise cell counts were established by Trypan blue exclusion assay immediately before plating of the cells. Compartment-specific bioluminescence emitted by individual wells of these plates was measured with two different bioluminescence imaging modalities, namely a Xenogen IVIS® Imaging System (FIG. 1A and FIG. 1B) and a standard luminometer plate reader—Luminoskan luminometer (Labsystems, MA) (FIG. 1C). The results with each method were analyzed for the linearity of the bioluminescent signal vs. cell number using the Living Image® software (Xenogen Corp, Alameda Calif.).

[5] = tested on: MM.1S-GFP-luc target cells; test: CS-BLI killing of MM.1S-GFP-luc target cells by IL-2 stimulated PBMCs; type: cell-based, human; conditions: for effect of concurrent drug exposure of co-culture on activity of PBMCs to kill tumor targets: 2 μM CC5013, 2 μM CC4047, 20 nM PS-341 or 100 nM Dex during co-culture; for effect of concurrent drug exposure of co-culture on activity of PBMCs to kill tumor targets / effect of drug pretreatment of PBMCs on activity of PBMCs to kill tumor targets: MM.1S-GFP-luc targets; for effect of drug pretreatment of PBMCs on activity of PBMCs to kill tumor targets: PBMCs pretreated 24 hrs with IL-2 plus 1 μM CC5013, 1 μM CC4047, 10 nM PS-341 or 50 nM Dexamethasone, washed
Experimental: (§3) PBMCs were isolated from a healthy donor, stimulated for 24 hrs with 10 ng/mL of IL-2 and then combined in culture with 5000 tumor target cells. The human multiple myeloma line, MM.1S-GFP-luc (FIG. 27A), was used as target cells and combined with PBMCs at 1:1, 1:5, 1:10, 1:20 and 1:40 ratios. The basophilic leukemia line, KU812F-luc-neo (FIG. 27B), was used as target cells and combined with PBMCs from the same donor at 1:1, 1:5, 1:10, 1:20 and 1:40 ratios. Viability of tumor cells was assessed using bioluminescence detection after the addition of luciferin substrate following 4 hours of co-culture with immune effector cells.
(§4) PBMCs were isolated from a healthy donor, stimulated for 24 hrs with IL-2 in the presence of either 1 μM CC5013 (FIG. 29A), 1 μM CC4047 (FIG. 29B), 10 nM PS-341 (FIG. 29C), or 50 nM Dexamethasone (FIG. 29D). PBMCs were washed and combined in culture with MM.1S-GFP-luc target cells at the 1:1, 1:2.5, 1:5, 1:10, 1:20 and 1:40 target to effector ratios.
PBMCs were isolated from a healthy donor, stimulated for 24 hrs with IL-2 in the presence or absence of 1 μM CC4047. MM.1S-GFP-luc cells were cultured in the presence or absence of 1 μM CC4047. PBMCs and MM.1S-GFP-luc cells were washed to remove drug and combined in culture with target MM.1S-GFP-luc target cells, either pretreated with 1 μM CC4047 or without, and combined at 1:1, 1:2.5, 1:5, 1:10, 1:20 and 1:40 target to effector ratios in the absence of drug.
PBMCs were isolated from a healthy donor, stimulated for 24 hrs with IL-2. PBMCs were combined in culture with MM.1S-GFP-luc target cells at the 1:1, 1:2.5, 1:5, 1:10, 1:20 and 1:40 target to effector ratios in the presence or absence of 2 μM CC5013 (FIG. 32A), 2 μM CC4047 (FIG. 32B), 20 nM PS-341 (FIG. 32C), or 100 nM Dex (FIG. 32D) during co-culture.

[6] = tested on: KU812F-luc-neo target cells; test: CS-BLI killing of KU812F-luc-neo target cells by IL-2 stimulated PBMCs; type: cell-based; conditions: for effect of concurrent drug exposure of co-culture on activity of PBMCs to kill tumor targets: 2 μM CC5013, 2 μM CC4047, 20 nM PS-341 or 100 nM Dex during co-culture; for effect of drug pretreatment of PBMCs on activity of PBMCs to kill tumor targets: PBMCs pretreated 24 hrs with IL-2 plus 1 μM CC5013, 1 μM CC4047, 10 nM PS-341 or 50 nM Dexamethasone, washed
Experimental: as §3
as §4, with “with” for “in the presence of”, “30A),” for “29A),”, “30B),” for “29B),”, “30C),” for “29C),”, “30D).” for “29D).”, “KU812F-luc-neo” for “MM.1S-GFP-luc”
PBMCs were isolated from a healthy donor, stimulated for 24 hrs with IL-2. PBMCs were then washed and combined in culture with KU812F-luc-neo target cells at the 1:1, 1:2.5, 1:5, 1:10, 1:20 and 1:40 target to effector ratios in the presence or absence 2 μM CC5013 (FIG. 33A), 2 μM CC4047 (FIG. 33B), 20 nM PS-341 (FIG. 33C), or 100 nM Dex (FIG. 33D).

[7] = tested on: MM-1R-GFP-luc myeloma cells; test: CS-BLI drug sensitivity of MM-1R-GFP-luc cells in presence vs absence of stromal cells; conditions: MM-1R-GFP-luc (Dex-resistant), presence vs absence of HS-5 BMSCs (10,000 per well)

Compound | effect of BMSC co-culture on tumor cell response to drug (protection) (K562-luc leukemia cells) | effect of BMSC co-culture on tumor cell response to drug (protection) [3] | effect of concurrent drug exposure of co-culture on activity of PBMCs to kill tumor targets [5] | effect of drug pretreatment of PBMCs on activity of PBMCs to kill tumor targets [5] | effect of concurrent drug exposure of co-culture on activity of PBMCs to kill tumor targets [6] | effect of drug pretreatment of PBMCs on activity of PBMCs to kill tumor targets [6] | other results
Nc1cccc2c1CN(C1CCC(=O)NC1=O)C2=O (stereo not shown) [lenalidomide] |  |  |  |  |  |  | single-agent in vitro anti-MM activity [1]: modest; anti-MM activity in vivo (MM): potent
Nc1ccn([C@@H]2O[C@H](CO)[C@@H](O)[C@@H]2O)c(=O)n1 [AraC] | protection was observed | decreased the responsiveness; also recorded: confer protection |  |  |  |  | effect of BMSC co-culture on tumor cell response to drug (protection) [2]: modest protection; effect of BMSC co-culture on tumor cell response to drug (protection) (A375-luc-neo cells): considerable level of protection; effect of BMSC co-culture on tumor cell response to drug (protection) (FRO-luc-neo cells): no protection; effect of BMSC co-culture on tumor cell response to drug (protection) ([3]; listed as Ara-C): develop stromal-derived resistance
CC(C)C[C@H](NC(=O)[C@H](Cc1ccccc1)NC(=O)c1cnccn1)B(O)O [PS-341, bortezomib] |  |  | decreased activity | did have a significant impact on blocking | significant difference blocking the activity | did have a significant impact on blocking | effect of BMSC co-culture on tumor cell response to drug (protection) ([4]; listed as bortezomib): did not abrogate the responsiveness; effect of BMSC co-culture on tumor cell response to drug (protection) [7]: confer no protection; effect of BMSC co-culture on tumor cell response to drug (protection) ([7]; listed as bortezomib): did not abrogate the responsiveness
Nc1cccc2c1CN(C1CCC(=O)NC1=O)C2=O (stereo not shown) [CC5013] |  |  | had an increase in the activity | did not have a significant impact | significant difference increasing the activity | did not have a significant impact | 
O=C1CCC(N2C(=O)c3ccccc3C2=O)C(=O)N1 (stereo not shown) [thalidomide] |  |  |  |  |  |  | single-agent in vitro anti-MM activity [1]: modest; anti-MM activity in vivo (MM): potent
Nc1cccc2c1C(=O)N(C1CCC(=O)NC1=O)C2=O (stereo not shown) [CC4047] |  |  | increased activity | did not have a significant impact; also recorded: no significant increasing in activity | significant difference increasing the activity | did have a significant impact on increasing | effect of drug pretreatment of target myeloma cells on killing by PBMCs ([5]; MM.1S-GFP-luc cells pretreated with 1 μM CC4047, washed): significant increase
CC1=C2C(=O)[C@H]3[C@@H](CC=C4C[C@@H](O)CC[C@@]43C)[C@@H]2CC[C@]12O[C@@H]1C[C@H](C)CN[C@H]1[C@H]2C [11-keto-cyclopamine] |  |  |  |  |  |  | effect of BMSC co-culture on tumor cell response to drug (protection) [4]: conferred protection; effect of BMSC co-culture on tumor cell response to drug (protection) [7]: conferred protection
Cc1cn(-c2cc(NC(=O)c3ccc(C)c(Nc4nccc(-c5cccnc5)n4)c3)cc(C(F)(F)F)c2)cn1 [nilotinib] | do not confer protection | confer protection |  |  |  |  | 
Cc1ccc(NC(=O)c2ccc(CN3CCN(C)CC3)cc2)cc1Nc1nccc(-c2cccnc2)n1 [Imatinib, imatinib] | do not confer protection | confer protection |  |  |  |  | effect of BMSC co-culture on tumor cell response to drug (protection) (K562-luc leukemia cells; listed as imatinib): do not exhibit such phenotype; effect of BMSC co-culture on tumor cell response to drug (protection) ([3]; listed as imatinib): develop stromal-derived resistance; also recorded: decreased the responsiveness
